Results from publication PMC7766132, “N-Terminal Tagging with GFP Enhances Selectivity of Agitoxin 2 to Kv1.3-Channel Binding Site” (Toxins, 2020).

Columns and labels:
[1] = test system: KcsA-Kv1.3; assay: Competitive displacement of GFP-L2-AgTx2 from KcsA-Kv1.3 on spheroplasts; type: binding; details: for Displacement of GFP-L2-AgTx2 from complexes with KcsA-Kv1.3 (in words) / Concentration range of competition with GFP-L2-AgTx2 for KcsA-Kv1.3: GFP-L2-AgTx2 20 nM; for Displacement of GFP-L2-AgTx2 from complexes with KcsA-Kv1.3 (in words) / Kd: 2 h, 37 °C; for Displacement of GFP-L2-AgTx2 from complexes with KcsA-Kv1.3 (in words): Figure 2D; for Kd: fluorescent ligand GFP-L2-AgTx2 20 nM, Kap = IC50/(1 + [L]/[Kd]), mean ± SEM, n = 3, read-out: Apparent dissociation constant Kap of peptide blocker – Kv1.3-binding site complexes; for Concentration range of competition with GFP-L2-AgTx2 for KcsA-Kv1.3: titration, Figure 3E
[2] = target: KcsA-Kv1.3; assay: Competitive displacement of His6-GFP-L2-AgTx2 from KcsA-Kv1.3 on spheroplasts; type: binding; details: for Kd: fluorescent ligand His6-GFP-L2-AgTx2 20 nM, 2 h, 37 °C, Kap = IC50/(1 + [L]/[Kd]), mean ± SEM, n = 3, read-out: Apparent dissociation constant Kap of peptide blocker – Kv1.3-binding site complexes; for Concentration range of competition with His6-GFP-L2-AgTx2 for KcsA-Kv1.3: titration, His6-GFP-L2-AgTx2 20 nM, Figure 3F
[3] = test system: Kv1.3; details: cited from earlier work
Excerpt: AgTx2 was successfully used in the form of a fluorescently labeled peptide (either RFP-AgTx2, or AgTx2 chemically labeled with tetramethylrhodamine, R-AgTx2) to probe binding affinities of various peptide toxins to different Kv1 channels. Extending color variety of AgTx2-based FP-Tx, we report here on the design of GFP-tagged AgTx2. Ability of GFP-tagged AgTx2 to interact with the pore blocker bi ... || To verify specificity of GFP-L2-AgTx2 interaction with the Kv1.3 binding site on the surface of KcsA-Kv1.3-presenting spheroplasts, we have studied the effect of well-known potassium channel peptide blockers on this interaction (Figure 2D). […] Scillato ... || To clarify the structural basis of the advanced selectivity of GFP-L2-AgTx2, a homologous GFP-L1-AgTx2 ligand was produced, in which the 45-aminoacid L1 linker was used instead of the L2 linker (Figure 1A).

[4] = test system: mKate2-hKv1.3-del; details: transient expression; cited from earlier work
Excerpt: In the following experiments we have verified, if AgTx2-L2-GFP, His6-AgTx2-L2-GFP and GFP-L1-AgTx2 can be used as fluorescent probes of Kv1.3 channels on the membrane of eukaryotic cells. Recently, we have designed a plasmid that encoded the fluorescently labeled human Kv1.3 channel (mKate2-hKv1.3-del) with enhanced presentation on the membrane of eukaryotic cells. […] Previously, the ...

[5] = test system: KcsA-Kv1.1; assay: Competitive displacement of AgTx2-L3-GFP from KcsA-Kv1.1 on spheroplasts; type: binding; details: AgTx2-L3-GFP 20 nM; Figure 4
[6] = test system: KcsA-Kv1.3; assay: Competitive displacement of AgTx2-L3-GFP from KcsA-Kv1.3 on spheroplasts; type: binding; details: AgTx2-L3-GFP 20 nM; Figure 4
[7] = test system: KcsA-Kv1.6; assay: Competitive displacement of AgTx2-L3-GFP from KcsA-Kv1.6 on spheroplasts; type: binding; details: AgTx2-L3-GFP 20 nM; Figure 4
[8] = test system: KCa2.3; details: known pharmacology, no reference given; cited from earlier work
[9] = test system: mKate2-hKv1.3-del; assay: Competitive displacement of GFP-L2-AgTx2 from mKate2-hKv1.3-del on HEK293 cells; type: cell-based, human; details: GFP-L2-AgTx2 40 nM, AgTx2 400 nM, 40 min
Excerpt: KCNA3 gene encoding human Kv1.3 (hKv1.3, Accession number NP_002223.3) was a generous gift from Dr. A. Vassilevski. The gene was amplified using primers KCNA3-del-f1 and KCNA3-r1 (Table 2) to obtain KCNA3-del gene encoding N-terminally truncated protein, in which residues M1 through D52 were deleted. The truncated gene was inserted into BglII/HindIII sites of pmKate2-C plasmid (Evrogen, Moscow, Russia) to obtain the resulting plasmid pmKate2-KCNA3-del, which was further used for transfection of HEK293T cells. In the hybrid protein, mKate2-hKv1.3-del, mKate2 was linked to the N-terminus of the hKv1.3-del channel through the 9-aa flexible linker. […]
HEK 293 cells (from the collection of the Institute of Cytology RAS) were grown (37 °C, 5% CO2) in DMEM/F12 (Paneco, Russia) containing 5% fetal bovine serum (FBS, HyClone, Utah, USA) and 2 mM L-glutamine. […] Competitive binding was assessed by incubating cells with GFP-L2-AgTx2 (40 nM) and AgTx2 (400 nM) for 40 min. […]
Experiments with HEK293 cells were performed with a laser scanning confocal microscope Leica-SP2 (Leica Microsystems GmbH, Wetzlar, Germany). […] Fluorescence of GFP-tagged AgTx2 was excited at the 488 nm wavelength and recorded in the 495–535 nm range. Fluorescence of mKate2-hKv1.3 was excited at the 561 nm wavelength and recorded in the 650–700 nm range.

[10] = test system: Kv1.1; details: cited from earlier work
Excerpt: (§1) AgTx2 was successfully used in the form of a fluorescently labeled peptide (either RFP-AgTx2, or AgTx2 chemically labeled with tetramethylrhodamine, R-AgTx2) to probe binding affinities of various peptide toxins to different Kv1 channels. Extending color variety of AgTx2-based FP-Tx, we report here on the design of GFP-tagged AgTx2. Ability of GFP-tagged AgTx2 to interact with the pore blocker bi ... || To clarify the structural basis of the advanced selectivity of GFP-L2-AgTx2, a homologous GFP-L1-AgTx2 ligand was produced, in which the 45-aminoacid L1 linker was used instead of the L2 linker (Figure 1A). […] Fusion of AgTx2 with GFP was performed using the 20-aa glycine-rich L3 linker, whose sequence was similar to the L2 linker.

[11] = test system: Kv1.6; details: cited from earlier work
Excerpt: as §1

[12] = test system: Kv1.2; details: cited from earlier work
Excerpt: Several fluorescently labeled peptide toxins were produced by chemical synthesis using reactive fluorescent organic dyes. The procedures are usually laborious, and the yields of the labeled products are often low. As an alternative, genetically encoded fluorescent protein-scorpion toxin chimeras (FP-Tx), which are the polypeptide ligands of potassium voltage-gated Kv1-channels were recently developed. […] AgTx2 was successfully used in the form of a fluorescently labeled peptide (either RFP-AgTx2, or AgTx2 chemically labeled with tetramethylrhodamine, R-AgTx2) to probe binding affinities of various peptide toxins to different Kv1 channels. Extending color variety of AgTx2-based FP-Tx, we report here on the design of GFP-tagged AgTx2. Ability of GFP-tagged AgTx2 to interact with the pore blocker bi ...

Molecule | Displacement of GFP-L2-AgTx2 from complexes with KcsA-Kv1.3 (in words) [1] | Kd [1] | Concentration range of competition with GFP-L2-AgTx2 for KcsA-Kv1.3 [1] | Kd [2] | Concentration range of competition with His6-GFP-L2-AgTx2 for KcsA-Kv1.3 [2] | Affinity to Kv1.3 channels (in words) [3] | Binding to mKate2-hKv1.3-del in eukaryotic cells (in words) [4] | Displacement of AgTx2-L3-GFP from complexes with KcsA-Kv1.1 (in words) [5] | Displacement of AgTx2-L3-GFP from complexes with KcsA-Kv1.3 (in words) [6] | Displacement of AgTx2-L3-GFP from complexes with KcsA-Kv1.6 (in words) [7] | Interaction with Kv1.3 channel (in words) ([3]; known pharmacology, no reference given) | Pore block of KCa2.3 channel (in words) [8] | Displacement of GFP-L2-AgTx2 from mKate2-hKv1.3-del at the cell membrane (in words) [9] | Affinity to Kv1.1 (in words) [10] | Affinity to Kv1.6 (in words) [11] | Affinity to Kv1.3 (in words) [3] | Selectivity for Kv1.3 over Kv1.1 and Kv1.6 channels [3] | Affinity to Kv1.2 (in words) [12]
Hetlaxin [HeTx] | low micromolar concentrations | 39 nM | higher concentrations | 45 nM | higher concentrations | moderate-affinity ligand | – | – | – | – | – | – | – | – | – | – | – | –
hongotoxin 1 | – | – | – | – | – | – | bind specifically | – | – | – | – | – | – | – | – | – | – | –
Scillatoxin [ScTx] | did not affect GFP-L2-AgTx2 binding to KcsA-Kv1.3 | – | – | – | – | – | – | did not compete | did not compete | did not compete | no ability to interact with Kv1.3 channel | pore blocker of KCa2.3 channel | – | – | – | – | – | –
CC[C@H](C)[C@@H]1NC(=O)[C@@H]2CSSC[C@@H]3NC(=O)[C@H](CCCCN)NC(=O)[C@H](CCCNC(=N)N)NC(=O)[C@H](CC(N)=O)NC(=O)[C@H](CCSC)NC(=O)[C@H](CSSC[C@H](NC(=O)[C@H](CO)NC(=O)[C@@H](NC(=O)[C@H](CC(N)=O)NC(=O)[C@@H](NC(=O)[C@@H]4CCCN4C(=O)[C@@H](NC(=O)CN)C(C)C)[C@@H](C)CC)C(C)C)C(=O)N[C@@H]([C@@H](C)O)C(=O)NCC(=O)N[C@@H](CO)C(=O)N4CCC[C@H]4C(=O)N[C@@H](CCC(N)=O)C(=O)N2)NC(=O)[C@H](CCCCN)NC(=O)CNC(=O)[C@H](Cc2ccccc2)NC(=O)[C@H](CCCNC(=N)N)NC(=O)[C@H](CCSC)NC(=O)CNC(=O)[C@H](C)NC(=O)[C@H](CC(=O)O)NC(=O)[C@H](CCCCN)NC(=O)[C@H](CSSC[C@@H](C(=O)N[C@H](C(=O)N2CCC[C@H]2C(=O)N[C@@H](CCCCN)C(=O)O)[C@@H](C)O)NC(=O)[C@H](Cc2c[nH]cn2)NC3=O)NC(=O)[C@@H]2CCCN2C(=O)[C@H](CCCCN)NC1=O [AgTx2, agitoxin 2] | low nanomolar | 0.23 ± 0.05 nM | nanomolar concentration range | 0.07 ± 0.004 nM | nanomolar concentration range | – | – | readily displaced | readily displaced | readily displaced | – | – | displaced totally | sub-nanomolar affinity | sub-nanomolar affinity | sub-nanomolar affinity | ca. tenfold | nanomolar affinity
CC[C@H](C)[C@H](NC(=O)[C@H](CCC(=O)O)NC(=O)[C@@H](NC(=O)CN)C(C)C)C(=O)N[C@@H](CC(N)=O)C(=O)N[C@H](C(=O)N[C@@H](CCCCN)C(=O)N[C@H]1CSSC[C@@H]2NC(=O)[C@H](CCCCN)NC(=O)CNC(=O)[C@H](Cc3ccccc3)NC(=O)[C@H](CCCNC(=N)N)NC(=O)[C@H](CCSC)NC(=O)CNC(=O)[C@H](C)NC(=O)[C@H](CC(=O)O)NC(=O)[C@H](CCCCN)NC(=O)[C@@H]3CSSC[C@@H](C(=O)N[C@H](C(=O)N4CCC[C@H]4C(=O)N[C@@H](CCCCN)C(=O)O)[C@@H](C)O)NC(=O)[C@H](Cc4c[nH]cn4)NC(=O)[C@H](CSSC[C@H](NC(=O)[C@H](CCC(N)=O)NC(=O)[C@@H]4CCCN4C(=O)[C@H](CO)NC(=O)CNC(=O)[C@H](CO)NC1=O)C(=O)N[C@@H](CC(C)C)C(=O)N[C@@H](CCCCN)C(=O)N1CCC[C@H]1C(=O)N3)NC(=O)[C@H](CCCCN)NC(=O)[C@H](CCCNC(=N)N)NC(=O)[C@H](CC(N)=O)NC(=O)[C@H](CCSC)NC2=O)C(C)C [KTx1, kaliotoxin 1] | low nanomolar | 0.1 ± 0.04 nM | nanomolar concentration range | 0.071 ± 0.007 nM | nanomolar concentration range | – | – | readily displaced | readily displaced | readily displaced | – | – | – | – | – | – | – | –
